Measured values as given in patent publication US20180193361A1, “GUT ANTI-INFLAMMATORY AGENTS FOR REGULATION OF HIGH BLOOD GLUCOSE LEVELS” (UNIVERSITY HEALTH NETWORK, priority 2015, published 2018).

Columns and labels:
gut epithelial barrier = conditions: models of IBD (Di Paolo et al., 1996; Liu et al., 2009); cited from earlier work
[1] = tablet; the remaining has local effects in the colon; cited from earlier work
MODE-K intestinal cells = test: ZO-1 expression in MODE-K cells treated with IFNγ; format: cell-based, murine; conditions: recombinant mouse IFNγ 5 or 10 ng/mL, 24 hours
Description: To measure the effect of IFNγ on tight-junction gene expression, we treated MODE-K cells with recombinant mouse IFNγ (Biolegend). We purified bulk dendritic cells and T cells from murine small bowels and spleens using a negative selection DC or T cell isolation kit (Stem Cell Technologies). We plated T cells at 5×10^5 cells/well with plate-bound anti-CD3/CD28 (1 μg/ml, Biolegend). […] We collected supernatants for cytokine measurements after 72 hour incubation. […] After 24 hours, we washed the cells with PBS and co-cultured them (1×10^4 cells/well) with OVA323-339 peptide and OT-II splenic or small bowel T cells (5×10^4 cells/well) for 48 hours. Supernatants were collected at 48 hours for cytokine measurement.
The murine intestinal epithelial cell line derived from C3H/He mice. […]
We extracted total RNA from isolated or cultured cells using a RNeasy Mini Kit (Qiagen), and for subcutaneous adipose tissue (SAT) and VAT we used a RNeasy Lipid Extraction kit (Qiagen). […] We assessed expression of adipocyte P2 (aP2), CCAAT/enhancer-binding protein-α (CEBPα), Peroxisome proliferator-activated receptor-γ (PPARγ), and sterol regulatory element-binding protein (SREBP) cDNA. […] We calculated relative fold changes in gene expression normalized to 18s or GAPDH by the ΔΔCT method using the equation 2-ΔΔCT. […]

Molecule: O=C(O)CCNC(=O)c1ccc(/N=N/c2ccc(O)c(C(=O)O)c2)cc1 [Balsalazide]
- intactness of the gut epithelial barrier (gut epithelial barrier): beneficial effects

Molecule: O=C(O)c1cc(/N=N/c2ccc(S(=O)(=O)Nc3ccccn3)cc2)ccc1O [Sulfasalazine]
- absorbed in small bowel [1]: approximately 20%

B1: IFNγ: recombinant mouse IFNγ (Biolegend) (protein, UniProt P01580 23-155, looked up)
Interferon gamma: HGTVIESLESLNNYFNSSGIDVEEKSLFLDIWRNWQKDGDMKILQSQIISFYLRLFEVLKDNQAISNNISVIESHLITTFFSNSKAKKDAFMSIAKFEVNNPQVQRQAFNELIRVVHQLLPESSLRKRKRSRC
- ZO-1 tight junction gene expression (MODE-K intestinal cells): reduce
